This note sets out measurements from ChEMBL document CHEMBL1201862, “PubChem BioAssay data set” (2004).

Among the test systems are EKVX; SN12C; LOX IMVI; SK-MEL-2; UACC-62; RXF 393; COLO 205; PC-3; ACHN; HCT-15; SF-539; HCC 2998; SK-OV-3; NCI-H460; DU-145; UO-31; CAKI-1; SR; K562; HT-29.
Holding throughout (experiment): growth of human tumour cells (NCI), 48 h

Molecules are shown by their SMILES.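 Cultured in 96-well plates, cells were exposed to test compound for 48 hours across five concentrations. GI50: concentration for 50% inhibition of growth.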 The source made the active and inactive calls. Rule as the data show it: active = GI50 up to about 1.1 µM and inactive = higher.

As for `Cc1cc(O)c2c3c(ccc2c1)C(=O)c1c(O)cccc1C3=O` [TETRANGULOL], the GI50 in the experiment on EKVX is 7.14 µM (inactive); with SN12C, 72.6 µM (inactive); in the experiment with LOX IMVI it was 5.57 µM (inactive); with SK-MEL-2, 10.3 µM (inactive); in the experiment with UACC-62, 1.55 µM (inactive); in the experiment on RXF 393 it was > 100 µM (inactive). Moreover, the GI50 with COLO 205 was 3.25 µM (inactive); with PC-3, 16.1 µM (inactive); in the experiment with ACHN, 17.7 µM (inactive); with HCT-15, 1.92 µM; with SF-539, 7.64 µM (inactive); in the experiment on HCC 2998, 5.15 µM (inactive). The GI50 with SK-OV-3 was > 83.2 µM (inactive); in the experiment on NCI-H460, 0.653 µM (active); with DU-145, 4.56 µM (inactive); in the experiment with UO-31, > 100 µM (inactive); in the experiment on CAKI-1 it was > 100 µM (inactive); in the experiment on SR it was 1.36 µM (inactive). Also, the GI50 was 18.6 µM (inactive) in the experiment on K562 and 8.15 µM (inactive) in the experiment with HT-29.
In the case of `S=C=Nc1ccc(CSc2nc3ccccc3[nH]2)cc1`, the GI50 was 20 µM (inactive) with EKVX; 17.5 µM (inactive) in the experiment with SN12C; 17.2 µM (inactive) with LOX IMVI; 18.9 µM (inactive) in the experiment on SK-MEL-2; 15.8 µM (inactive) with UACC-62; 16.4 µM (inactive) in the experiment with RXF 393. In addition, the GI50 was 15.5 µM (inactive) in the experiment on COLO 205; 17.9 µM (inactive) in the experiment on PC-3; 14.3 µM (inactive) in the experiment with ACHN; 15 µM in the experiment on HCT-15; 18.8 µM (inactive) in the experiment with SF-539; 18.1 µM (inactive) with HCC 2998. In addition, the GI50 is 21.6 µM (inactive) in the experiment with SK-OV-3; 20.8 µM (inactive) with NCI-H460; 16.1 µM (inactive) in the experiment with DU-145; 19.5 µM (inactive) in the experiment with UO-31; 17.7 µM (inactive) in the experiment on CAKI-1; 20.7 µM (inactive) in the experiment on SR. The GI50 was 39.4 µM (inactive) in the experiment on K562 and 18.4 µM (inactive) in the experiment on HT-29.
In the case of `Cc1nc2c(=O)[nH]c(=O)nc-2n(CCO)c1C`, the GI50 in the experiment on EKVX, in the experiment with SN12C, in the experiment with LOX IMVI, with SK-MEL-2, with UACC-62 and with RXF 393 was > 100 µM (inactive) in each case. Also, the GI50 is > 100 µM (inactive) in the experiment on COLO 205; > 100 µM (inactive) with PC-3; > 100 µM (inactive) in the experiment on ACHN; greater than 100 µM in the experiment with HCT-15; > 100 µM (inactive) in the experiment on SF-539; > 100 µM (inactive) in the experiment on HCC 2998. For the same compound, the GI50 in the experiment with SK-OV-3, with NCI-H460, with DU-145, in the experiment on UO-31, in the experiment with CAKI-1 and in the experiment on SR was > 100 µM (inactive) in each case. For the same compound, the GI50 in the experiment on K562 and with HT-29 was > 100 µM (inactive) throughout.
`CCCC(=O)Nc1cc(/C=C/C(=O)N2CC(CCl)c3c2cc(O)c2[nH]cc(C)c32)n(C)c1` (stereo not given): the GI50 in the experiment with EKVX, in the experiment on SN12C, in the experiment with LOX IMVI, in the experiment on SK-MEL-2, in the experiment with UACC-62 and with RXF 393 was < 2.5e-05 µM (active) throughout. The GI50 was < 2.5e-05 µM (active) with COLO 205; < 2.5e-05 µM (active) in the experiment on PC-3; < 2.5e-05 µM (active) in the experiment with ACHN; 0.000117 µM with HCT-15; < 2.5e-05 µM (active) in the experiment on SF-539; < 2.5e-05 µM (active) in the experiment on HCC 2998. The GI50 with SK-OV-3, in the experiment on NCI-H460, with DU-145, with UO-31, with CAKI-1 and in the experiment with SR was < 2.5e-05 µM (active) in each case. Further, the GI50 is 3.79e-05 µM (active) in the experiment with K562 and < 2.5e-05 µM (active) with HT-29.
Take `COC(=O)c1cc2c(cc1Cl)Sc1nnc(Nc3ccccc3)n1S2(=O)=O`: the GI50 is 7.1 µM (inactive) in the experiment on EKVX; 6.31 µM (inactive) in the experiment on SN12C; 7.98 µM (inactive) in the experiment on LOX IMVI; 2.81 µM (inactive) with SK-MEL-2; 3.99 µM (inactive) with UACC-62; 2.21 µM (inactive) in the experiment on RXF 393. Besides, the GI50 is 6.52 µM (inactive) in the experiment with COLO 205; 3.08 µM (inactive) in the experiment on PC-3; 1.8 µM (inactive) in the experiment with ACHN; 2.34 µM with HCT-15; 2.15 µM (inactive) in the experiment on SF-539; 1.91 µM (inactive) in the experiment on HCC 2998. In addition, the GI50 in the experiment with SK-OV-3 was 6.75 µM (inactive); in the experiment with NCI-H460 it was 10 µM (inactive); in the experiment on DU-145, 1.66 µM (inactive); in the experiment with UO-31 it was 2.48 µM (inactive); in the experiment with CAKI-1, 2.42 µM (inactive); in the experiment with SR, 2.74 µM (inactive). The results for the GI50 with K562 and with HT-29 were 3.41 µM (inactive) and 2.4 µM (inactive), respectively.
As for `[O-][n+]1onc2c1/C(=N/O)CCC2`, the GI50 in the experiment with EKVX, in the experiment with SN12C, in the experiment with LOX IMVI, in the experiment with SK-MEL-2, in the experiment on UACC-62 and in the experiment with RXF 393 was > 100 µM (inactive) each time. In addition, the GI50 with COLO 205 was > 100 µM (inactive); with PC-3, > 100 µM (inactive); in the experiment on ACHN, > 100 µM (inactive); in the experiment on HCT-15, greater than 100 µM; in the experiment on SF-539, > 100 µM (inactive); in the experiment on HCC 2998, > 100 µM (inactive). For the same compound, the GI50 with SK-OV-3, in the experiment on NCI-H460, with DU-145, in the experiment with UO-31, with CAKI-1 and in the experiment on SR was > 100 µM (inactive) each time. Further, the GI50 in the experiment on K562 and in the experiment with HT-29 was > 100 µM (inactive) each time.
`CCOP(=O)(OCC)C(=C1C=C(C(C)(C)C)C(=O)C(C(C)(C)C)=C1)P(=O)(OCC)OCC`: the GI50 in the experiment with EKVX was > 7.76 µM (inactive); in the experiment on SN12C, > 10 µM (inactive); in the experiment with LOX IMVI, > 10 µM (inactive); with SK-MEL-2 it was > 10 µM (inactive); with UACC-62 it was > 10 µM (inactive); with RXF 393, 4.97 µM (inactive). Further, the GI50 in the experiment on COLO 205 was 1.98 µM (inactive); in the experiment on PC-3 it was > 10 µM (inactive); in the experiment with ACHN it was 1.94 µM (inactive); with HCT-15, 3.1 µM; in the experiment with SF-539, > 10 µM (inactive); in the experiment on HCC 2998, > 10 µM (inactive). The GI50 in the experiment with SK-OV-3 is > 10 µM (inactive); with NCI-H460, > 10 µM (inactive); with DU-145, > 10 µM (inactive); in the experiment with UO-31, > 10 µM (inactive); with CAKI-1, 3.33 µM (inactive); with SR, 3.64 µM (inactive). Besides, the GI50 in the experiment with K562 was > 4.8 µM (inactive); in the experiment on HT-29 it was > 10 µM (inactive).
Turning to `O=C1CS(=O)(=O)C(c2cccc(Oc3ccccc3)c2)N1C1CC1` (stereo not given), the GI50 is 29 µM (inactive) in the experiment on EKVX; 46.8 µM (inactive) in the experiment with SN12C; 41.7 µM (inactive) in the experiment on LOX IMVI; 45.1 µM (inactive) in the experiment on SK-MEL-2; 31.6 µM (inactive) with UACC-62; 22 µM (inactive) in the experiment on RXF 393. Moreover, the GI50 was 25.2 µM (inactive) with COLO 205; 25.8 µM (inactive) in the experiment on PC-3; 31.2 µM (inactive) in the experiment on ACHN; 30.3 µM with HCT-15; 50.9 µM (inactive) in the experiment on SF-539; 44 µM (inactive) with HCC 2998. The GI50 in the experiment with SK-OV-3 is 33.3 µM (inactive); with NCI-H460, 43.4 µM (inactive); in the experiment on DU-145, 63.2 µM (inactive); in the experiment on UO-31, 27.6 µM (inactive); with CAKI-1, 0.045 µM (active); in the experiment with SR, 31.6 µM (inactive). Also, the figures for the GI50 in the experiment on K562 and with HT-29 were 50.9 µM (inactive) and 32.7 µM (inactive), respectively.
